As usually defined, the MIC is the lowest concentration found to suppress growth. The term IC50 denotes the concentration that gives 50% inhibition.

Data on 27 compounds can be found in ChEMBL document CHEMBL4725357, “Elucidating the Structural Requirement of Uridylpeptide Antibiotics for Antibacterial Activity” (J Med Chem, 2020).

One assay deals with Pseudomonas aeruginosa. Put plainly: Antibacterial activity against Pseudomonas aeruginosa PAO1 incubated for 18 hrs by CLSI based broth microdilution method. In kind it is functional. In general terms: Dilution methods test growth across graded concentrations, often in twofold steps.
A short description of assay [1]: Inhibition of Staphylococcus aureus MraY using UDPMurNAc-dansylpentapeptide as substrate incubated for 3 hrs by fluorescence method.
A short description of assay [2]: Inhibition of Staphylococcus aureus MraY using UDPMurNAc-dansylpentapeptide as substrate incubated for 3 to 4 hrs by fluorescence method.

In brackets after ≈: the same amount, converted by molar mass.

In turn, `C[C@@H]([C@H](NC(=O)[C@H](CC(=O)O)NC(=O)N[C@@H](Cc1c[nH]c2ccccc12)C(=O)O)C(=O)N/C=C1\O[C@@H](n2ccc(=O)[nH]c2=O)[C@H](O)[C@@H]1O)N(C)C(=O)[C@@H](N)Cc1cccc(O)c1` showed an MIC in the assay on Pseudomonas aeruginosa greater than 128 µg/mL. For the same compound, the concentration for half-maximal inhibition (IC50) in assay [1] was 7.6 nM. Compound `CC(=O)N[C@H](C(=O)N/C=C1\O[C@@H](n2ccc(=O)[nH]c2=O)[C@H](O)[C@@H]1O)[C@H](C)N(C)C(=O)[C@@H](N)Cc1cccc(O)c1` showed an IC50 in assay [1] greater than 1000 nM. `CCCCCCCCCCCCCCC[C@H](NC(=O)[C@@H](NC(=O)N[C@H](C(=O)O)C(C)C)[C@@H]1CCNC(=N)N1)C(=O)NCCCN[C@H](C(=O)O)[C@H](O[C@@H]1O[C@H](CN)[C@@H](O)[C@H]1O)[C@H]1O[C@@H](n2ccc(=O)[nH]c2=O)[C@H](O)[C@@H]1O` showed an IC50 in assay [1] of 1.1 nM. That is a single-digit nanomolar value.

`C[C@@H](O)[C@H](NC(=O)N[C@@H](Cc1c[nH]c2ccccc12)C(=O)O)C(=O)N[C@H](C(=O)N/C=C1\O[C@@H](n2ccc(=O)[nH]c2=O)[C@H](O)[C@@H]1O)[C@H](C)N(C)C(=O)[C@@H](N)Cc1cccc(O)c1`: the MIC against Pseudomonas aeruginosa was found to be 32 µg/mL (≈ 37.7 µM). In assay [1], the IC50 was 1.8 nM.

As to `C[C@@H]([C@H](NC(=O)[C@H](CS)NC(=O)N[C@@H](Cc1c[nH]c2ccccc12)C(=O)O)C(=O)N/C=C1\O[C@@H](n2ccc(=O)[nH]c2=O)[C@H](O)[C@@H]1O)N(C)C(=O)[C@@H](N)Cc1cccc(O)c1`, the MIC in the assay on Pseudomonas aeruginosa worked out at 128 µg/mL (≈ 150 µM). In assay [1], this compound registered an IC50 of 1.6 nM. The like results for `CC(C)[C@H](NC(=O)N[C@@H](Cc1c[nH]c2ccccc12)C(=O)O)C(=O)N[C@H](C(=O)N/C=C1\O[C@@H](n2ccc(=O)[nH]c2=O)[C@H](O)[C@@H]1O)[C@H](C)N(C)C(=O)[C@@H](N)Cc1cccc(O)c1` were, in that order, 16 µg/mL (≈ 18.9 µM) and 1.5 nM. As to `C[C@H](NC(=O)N[C@@H](Cc1c[nH]c2ccccc12)C(=O)O)C(=O)N[C@H](C(=O)N/C=C1\O[C@@H](n2ccc(=O)[nH]c2=O)[C@H](O)[C@@H]1O)[C@H](C)N(C)C(=O)[C@@H](N)Cc1cccc(O)c1`, it took 64 µg/mL (≈ 78.1 µM) to inhibit growth in the assay with Pseudomonas aeruginosa (MIC). In assay [1], the IC50 was determined as 1.3 nM. `CCCCCCCCCCCCCCCC(=O)N[C@@H](C)C(=O)N[C@H](C(=O)N/C=C1\O[C@@H](n2ccc(=O)[nH]c2=O)[C@H](O)[C@@H]1O)[C@H](C)N(C)C(=O)[C@@H](N)Cc1cccc(O)c1`: the IC50 in assay [1] is greater than 1000 nM. For the compound `C[C@@H]([C@H](NC(=O)[C@H](Cc1ccc(O)cc1)NC(=O)N[C@@H](Cc1c[nH]c2ccccc12)C(=O)O)C(=O)N/C=C1\O[C@@H](n2ccc(=O)[nH]c2=O)[C@H](O)[C@@H]1O)N(C)C(=O)[C@@H](N)Cc1cccc(O)c1`, the MIC in the assay on Pseudomonas aeruginosa was 16 µg/mL (≈ 17.5 µM). The compound further showed an IC50 in assay [1] of 0.22 nM. For `CC(C)C[C@H](NC(=O)N[C@@H](Cc1c[nH]c2ccccc12)C(=O)O)C(=O)N[C@H](C(=O)N/C=C1\O[C@@H](n2ccc(=O)[nH]c2=O)[C@H](O)[C@@H]1O)[C@H](C)N(C)C(=O)[C@@H](N)Cc1cccc(O)c1` the same measures were 32 µg/mL (≈ 37.1 µM) and 4 nM. The like results for `C[C@@H]([C@H](NC(=O)[C@H](CCC(=O)O)NC(=O)N[C@@H](Cc1c[nH]c2ccccc12)C(=O)O)C(=O)N/C=C1\O[C@@H](n2ccc(=O)[nH]c2=O)[C@H](O)[C@@H]1O)N(C)C(=O)[C@@H](N)Cc1cccc(O)c1` were, in that order, 128 µg/mL (≈ 146 µM) and 3.3 nM. In the case of `CC(C)C[C@H](NC(=O)[C@@H](NC(=O)N[C@H](C(=O)O)C(C)C)[C@@H]1CCNC(=N)N1)C(=O)NCCCN[C@H](C(=O)O)[C@H](O[C@@H]1O[C@H](CN)[C@@H](O)[C@H]1O)[C@H]1O[C@@H](n2ccc(=O)[nH]c2=O)[C@H](O)[C@@H]1O` [MURAMYCIN D2], the IC50 in assay [1] was determined as 2.8 nM. This counts as single-digit nanomolar.

Compound `C[C@@H]([C@H](NC(=O)CNC(=O)N[C@@H](Cc1c[nH]c2ccccc12)C(=O)O)C(=O)N/C=C1\O[C@@H](n2ccc(=O)[nH]c2=O)[C@H](O)[C@@H]1O)N(C)C(=O)[C@@H](N)Cc1cccc(O)c1` showed an MIC in the assay with Pseudomonas aeruginosa greater than 128 µg/mL. This compound also registered an IC50 in assay [1] of 4.2 nM.

In assay [1], `CC(=O)N[C@@H](C)C(=O)N[C@H](C(=O)N/C=C1\O[C@@H](n2ccc(=O)[nH]c2=O)[C@H](O)[C@@H]1O)[C@H](C)N(C)C(=O)[C@@H](N)Cc1cccc(O)c1` had an IC50 greater than 1000 nM. For the compound `C[C@@H]([C@H](NC(=O)[C@H](CO)NC(=O)N[C@@H](Cc1c[nH]c2ccccc12)C(=O)O)C(=O)N/C=C1\O[C@@H](n2ccc(=O)[nH]c2=O)[C@H](O)[C@@H]1O)N(C)C(=O)[C@@H](N)Cc1cccc(O)c1`, in the assay on Pseudomonas aeruginosa, the MIC was greater than 128 µg/mL. The compound further yielded an IC50 in assay [1] of 1.8 nM. For `CC[C@H](C)[C@H](NC(=O)N[C@@H](Cc1c[nH]c2ccccc12)C(=O)O)C(=O)N[C@H](C(=O)N/C=C1\O[C@@H](n2ccc(=O)[nH]c2=O)[C@H](O)[C@@H]1O)[C@H](C)N(C)C(=O)[C@@H](N)Cc1cccc(O)c1` the same measures were 16 µg/mL (≈ 18.6 µM) and 1.4 nM. Compound `C[C@@H]([C@H](NC(=O)[C@H](CCCNC(=N)N)NC(=O)N[C@@H](Cc1c[nH]c2ccccc12)C(=O)O)C(=O)N/C=C1\O[C@@H](n2ccc(=O)[nH]c2=O)[C@H](O)[C@@H]1O)N(C)C(=O)[C@@H](N)Cc1cccc(O)c1` yielded an MIC with Pseudomonas aeruginosa greater than 128 µg/mL. This compound returned an IC50 in assay [1] of 3.4 nM. In assay [1], `CCCCCCCCCCCCCCC[C@H](N)C(=O)NCCCN[C@H](C(=O)O)[C@H](O[C@@H]1O[C@H](CN)[C@@H](O)[C@H]1O)[C@H]1O[C@@H](n2ccc(=O)[nH]c2=O)[C@H](O)[C@@H]1O` registered an IC50 of 2.7 nM. This lies in the single-digit nanomolar range.

Compound `C[C@@H]([C@H](NC(=O)[C@@H]1CCCN1C(=O)N[C@@H](Cc1c[nH]c2ccccc12)C(=O)O)C(=O)N/C=C1\O[C@@H](n2ccc(=O)[nH]c2=O)[C@H](O)[C@@H]1O)N(C)C(=O)[C@@H](N)Cc1cccc(O)c1` had an MIC with Pseudomonas aeruginosa greater than 128 µg/mL. Besides, in assay [1], the IC50 is greater than 500 nM. Take `C[C@@H]([C@H](NC(=O)[C@H](Cc1c[nH]c2ccccc12)NC(=O)N[C@@H](Cc1c[nH]c2ccccc12)C(=O)O)C(=O)N/C=C1\O[C@@H](n2ccc(=O)[nH]c2=O)[C@H](O)[C@@H]1O)N(C)C(=O)[C@@H](N)Cc1cccc(O)c1`: in the assay on Pseudomonas aeruginosa, the MIC is 32 µg/mL (≈ 34.2 µM). The same compound registered an IC50 in assay [1] of 0.44 nM. For `C[C@@H]([C@H](NC(=O)[C@H](CCCCN)NC(=O)N[C@@H](Cc1c[nH]c2ccccc12)C(=O)O)C(=O)N/C=C1\O[C@@H](n2ccc(=O)[nH]c2=O)[C@H](O)[C@@H]1O)N(C)C(=O)[C@@H](N)Cc1cccc(O)c1` the same measures were greater than 128 µg/mL and 1.8 nM.

`C[C@@H]([C@H](NC(=O)[C@H](Cc1ccccc1)NC(=O)N[C@@H](Cc1c[nH]c2ccccc12)C(=O)O)C(=O)N/C=C1\O[C@@H](n2ccc(=O)[nH]c2=O)[C@H](O)[C@@H]1O)N(C)C(=O)[C@@H](N)Cc1cccc(O)c1`: in the assay with Pseudomonas aeruginosa, the MIC worked out at 16 µg/mL (≈ 17.9 µM). Moreover, 0.6 nM corresponded to half-maximal inhibition in assay [1] (IC50).

As for `CSCC[C@H](NC(=O)N[C@@H](Cc1c[nH]c2ccccc12)C(=O)O)C(=O)N[C@H](C(=O)N/C=C1\O[C@@H](n2ccc(=O)[nH]c2=O)[C@H](O)[C@@H]1O)[C@H](C)N(C)C(=O)[C@@H](N)Cc1cccc(O)c1`, the MIC with Pseudomonas aeruginosa turned out to be 32 µg/mL (≈ 36.4 µM). For the same compound, in assay [1], the IC50 is 1 nM. The like results for `C[C@@H]([C@H](NC(=O)[C@H](CC(N)=O)NC(=O)N[C@@H](Cc1c[nH]c2ccccc12)C(=O)O)C(=O)N/C=C1\O[C@@H](n2ccc(=O)[nH]c2=O)[C@H](O)[C@@H]1O)N(C)C(=O)[C@@H](N)Cc1cccc(O)c1` were, in that order, greater than 128 µg/mL and 2.1 nM.

Turning to `C[C@@H]([C@H](NC(=O)[C@H](CCC(N)=O)NC(=O)N[C@@H](Cc1c[nH]c2ccccc12)C(=O)O)C(=O)N/C=C1\O[C@@H](n2ccc(=O)[nH]c2=O)[C@H](O)[C@@H]1O)N(C)C(=O)[C@@H](N)Cc1cccc(O)c1`, the MIC in the assay with Pseudomonas aeruginosa was 128 µg/mL (≈ 146 µM). In assay [1], this compound displayed an IC50 of 1.3 nM.

Regarding `C[C@@H]([C@H](NC(=O)[C@H](Cc1cnc[nH]1)NC(=O)N[C@@H](Cc1c[nH]c2ccccc12)C(=O)O)C(=O)N/C=C1\O[C@@H](n2ccc(=O)[nH]c2=O)[C@H](O)[C@@H]1O)N(C)C(=O)[C@@H](N)Cc1cccc(O)c1`, the MIC against Pseudomonas aeruginosa was greater than 128 µg/mL. In assay [1], this compound yielded an IC50 of 2.8 nM. For the compound `C[C@H](N)C(=O)N(C)[C@@H](C)[C@H](NC(=O)[C@H](C)NC(=O)N[C@@H](Cc1c[nH]c2ccccc12)C(=O)O)C(=O)N/C=C1/CC(O)[C@H](n2ccc(=O)[nH]c2=O)O1` (some centres not stated), half-maximal inhibition in assay [2] (IC50) required 22 nM.
